According to paper PMC11702208 (RSC Advances, 2025):
Read-outs that look alike come from different tables or passages of the source.

Assays:
Format in all cases: cell-based, human
[1] = test system: Ovarian cancer subpanel tumor cell lines; experiment: NCI cytotoxicity screen, subpanel; conditions: for GI50 / TGI: subpanel value, Ovarian cancer
[2] = test system: CNS cancer subpanel tumor cell lines; experiment: NCI cytotoxicity screen, subpanel; conditions: for GI50 / TGI: subpanel value, CNS cancer
DU-145 = experiment: NCI cytotoxicity screen; conditions: Homo sapiens
HOP-62 = experiment: NCI cytotoxicity screen; conditions: Homo sapiens
SN12C = experiment: NCI cytotoxicity screen; conditions: Homo sapiens, SN12C
HT29 = experiment: NCI cytotoxicity screen; conditions: Homo sapiens, HT-29
HCC-2998 = experiment: NCI cytotoxicity screen; conditions: Homo sapiens, HCC 2998
[3] = test system: Breast cancer subpanel tumor cell lines; experiment: NCI cytotoxicity screen, subpanel; conditions: for GI50 / TGI: subpanel value, Breast cancer
59 cancer cell lines = experiment: NCI cytotoxicity screen, full panel; conditions: for GI50: read-out: GI50 MG_MID
OVCAR-5 = experiment: NCI cytotoxicity screen; conditions: Homo sapiens, OVCAR-5
A498 = experiment: NCI cytotoxicity screen; conditions: Homo sapiens, A498
[4] = test system: Renal cancer subpanel tumor cell lines; experiment: NCI cytotoxicity screen, subpanel
SF-295 = experiment: NCI cytotoxicity screen; conditions: Homo sapiens
786-0 = experiment: NCI cytotoxicity screen; conditions: Homo sapiens
[5] = test system: Leukemia subpanel tumor cell lines; experiment: NCI cytotoxicity screen, subpanel; conditions: for GI50 / TGI: subpanel value, Leukemia
OVCAR-8 = experiment: NCI cytotoxicity screen; conditions: Homo sapiens
SW-620 = experiment: NCI cytotoxicity screen; conditions: Homo sapiens
NCI-H460 = experiment: NCI cytotoxicity screen; conditions: Homo sapiens
T-47D = experiment: NCI cytotoxicity screen; conditions: Homo sapiens, T47D
SF-268 = experiment: NCI cytotoxicity screen; conditions: Homo sapiens
UACC-257 = experiment: NCI cytotoxicity screen; conditions: Homo sapiens
[6] = test system: Melanoma subpanel tumor cell lines; experiment: NCI cytotoxicity screen, subpanel; conditions: for GI50 / TGI: subpanel value, Melanoma
MALME-3M = experiment: NCI cytotoxicity screen; conditions: Homo sapiens, Malme-3M
[7] = full panel mean-graph midpoint, listed as gefitinib

C#Cc1cccc(Nc2ncnc3cc(OCCOC)c(OCCOC)cc23)c1 [Erlotinib, reference compound]
CC50 ([1]; Homo sapiens, read-out: LC50): 97.1 µM
GI50 [1]: 5.52 µM
TGI [1]: 74.41 µM
CC50 ([2]; Homo sapiens, read-out: LC50): > 100 µM
GI50 ([2]; Homo sapiens): 17 µM
GI50 [2]: 17 µM
TGI [2]: 82.11 µM
GI50 (DU-145): 1.58 µM
GI50 (HOP-62): 12.6 µM
GI50 (SN12C): 6.3 µM
GI50 (HT29): 50.1 µM
GI50 (HCC-2998): 79.3 µM
CC50 ([3]; Homo sapiens, read-out: LC50): 96.4 µM
GI50 ([3]; Homo sapiens): 24.7 µM
GI50 [3]: 24.7 µM
TGI [3]: 70.53 µM
TGI MG_MID (59 cancer cell lines; full panel mean-graph midpoint): 66.3 µM
TGI MG_MID (59 cancer cell lines; full panel mean-graph midpoint, listed as erlotinib): 14.3 µM
GI50 (59 cancer cell lines; full panel mean-graph midpoint): 7.68 µM
CC50 (59 cancer cell lines; read-out: LC50 MG_MID, full panel mean-graph midpoint): 95.6 µM
CC50 (59 cancer cell lines; read-out: LC50 MG_MID, full panel mean-graph midpoint, listed as erlotinib): 14.3 µM
GI50 (OVCAR-5): 19.9 µM
GI50 (A498): 1.58 µM
CC50 ([4]; Homo sapiens, read-out: LC50): 89.2 µM
GI50 ([4]; Homo sapiens, subpanel value, Renal cancer): 2.5 µM
GI50 ([4]; subpanel value, Renal cancer): 2.46 µM
TGI ([4]; subpanel value, Renal cancer): 42.59 µM
GI50 (SF-295): 15.8 µM
GI50 (786-0): 5.01 µM
CC50 ([5]; Homo sapiens, read-out: LC50): > 100 µM
GI50 ([5]; Homo sapiens): 27.9 µM
GI50 [5]: 27.9 µM
TGI [5]: 96.57 µM
GI50 (OVCAR-8): 7.94 µM
GI50 (SW-620): 5.01 µM
GI50 (NCI-H460): 5.01 µM
GI50 (T-47D): 3.16 µM
GI50 (SF-268): 19.9 µM
GI50 (UACC-257): 100 µM
CC50 ([6]; Homo sapiens, read-out: LC50): 93.3 µM
GI50 ([6]; Homo sapiens): 23.7 µM
GI50 [6]: 23.7 µM
TGI [6]: 77.89 µM
GI50 (MALME-3M): 5.01 µM

COc1cc2ncnc(Nc3ccc(F)c(Cl)c3)c2cc1OCCCN1CCOCC1 [Gefitinib, reference compound]
GI50 ([1]; Homo sapiens): 3.3 µM
GI50 [1]: 3.05 µM
TGI [1]: 33.29 µM
GI50 ([2]; Homo sapiens): 5.6 µM
GI50 [2]: 5.64 µM
TGI [2]: 19.62 µM
GI50 (DU-145): 2.51 µM
GI50 (HOP-62): 10 µM
GI50 (HT29): 3.98 µM
GI50 (HCC-2998): 10 µM
GI50 ([3]; Homo sapiens): 4.7 µM
GI50 [3]: 4.67 µM
TGI [3]: 18.62 µM
CC50 (59 cancer cell lines; Homo sapiens, read-out: LC50 MG_MID, full panel mean-graph midpoint): 95.6 µM
TGI MG_MID (59 cancer cell lines; full panel mean-graph midpoint): 14.3 µM
TGI MG_MID (59 cancer cell lines; [7]): 66.3 µM
GI50 (59 cancer cell lines; full panel mean-graph midpoint): 2.1 µM
GI50 (59 cancer cell lines; [7]): 7.7 µM
GI50 (OVCAR-5): 10 µM
GI50 (A498): 0.4 µM
GI50 (SF-295): 1.99 µM
GI50 (786-0): 7.94 µM
GI50 ([5]; Homo sapiens): 2.6 µM
GI50 [5]: 2.56 µM
TGI [5]: 12.07 µM
GI50 (OVCAR-8): 10 µM
GI50 (SW-620): 7.94 µM
GI50 (SF-268): 7.94 µM
GI50 ([6]; Homo sapiens): 3.7 µM
GI50 [6]: 3.68 µM
TGI [6]: 12.49 µM
GI50 (MALME-3M): 3.16 µM
